Assay results taken from patent publication US20240246960A1 (adMare Therapeutics Society, priority 2021, published 2024).
Each block holds one compound with its values, some of them ahead of it.

Key:
[1] = Pharmacokinetic study in mice (IV, PO); format: in vivo, mice (C57BL/6); conditions: Mouse Plasma; for AUC(0-t) / half-life / AUC(0-inf) / Cmax / Cmax at 5 min: female, C57BL/6; for AUC(0-inf): read-out: AUCINF—obs; for Cmax: read-out: Cmax (5 min)
Protocol: Pharmacokinetic analysis of compounds was conducted following bolus intravenous (IV) or bolus oral (PO) gavage in mice. Female mice (C57BL/6) in the 17-26 g range were weighed, and then administered an individually prescribed dose volume based on body weight of formulated compound via the intravenous (IV; tail vein) or oral gavage (PO) route (IV 5 mL/kg; PO 10 mL/kg). At selected timepoints post administration, blood was collected into vials with anticoagulant, processed for plasma by centrifugation, and then kept frozen ([…]) until analysis.
(§1) The in-vivo study plasma samples were analyzed using Ultra Performance Liquid Chromatography (UPLC) with tandem mass spectrometry (MS/MS) detection in multiple reaction monitoring (MRM) mode. A generic bioanalytical method involving plasma sample extraction and cleanup by protein precipitation with acetonitrile was used followed by UPLC-MS/MS analysis.
(§2) A brief example of a generic bioanalytical UPLC-MS/MS method used for analysis of compounds in the in-vivo study plasma samples is as follows. Plasma samples were spiked with internal standard prior to extraction and cleanup by protein precipitation with ice cold acetonitrile containing 0.1% (v/v) ammonium hydroxide at a ratio of 3:1 (solvent:plasma) and centrifuged at 18213 rcf for 15 minutes at 4° C. to pellet precipitates. Aliquots of supernatants were transferred to a 96-well plate and evaporated to dryness at 40° C. under a stream of nitrogen gas. Samples were reconstituted in 50:50 acetonitrile/10 mM ammonium acetate buffer pH 8, mixed thoroughly and analyzed using Ultra Performance Liquid Chromatography (UPLC) with tandem mass spectrometry (MS/MS) detection in multiple reaction monitoring (MRM) mode. Matrix-matched calibration standards and quality control (QC) samples were prepared in naïve C57Bl/6 mouse plasma. The UPLC column used was Waters Acquity UPLC BEH C18 1.7 um, 2.1 mm×50 mm (with guard column). The UPLC mobile phase consisted of: Mobile phase A: 10 mM ammonium acetate in Water pH 8, and Mobile phase B: Acetonitrile. Separation was accomplished with a linear gradient of 5% mobile phase B to 95% mobile phase B in 2 min, and a flow rate of 0.35 mL/min. The MS/MS data acquisition was accomplished using 3 MRM Transitions in ESI+ mode. Parent ion mass 508.37 m/z-to-Daughter ions (m/z) 117.05, 232.13 and 270.22. The quantitation of concentrations in test samples was achieved by matrix-matched calibration with normalization using an internal standard. Data acquisition and analysis were performed using Waters MassLynx software with TargetLynx application manager.
(§3) Estimation of PK parameters was performed using independent noncompartmental model method by PHOENIX WinNonlin software.

[2] = Pharmacokinetic study in dogs (IV, PO); format: in vivo, Beagle dogs; conditions: Table C, Dog Plasma; for AUC(0-t) / Cmax at 5 min / half-life / AUC(0-inf): male, Beagle; for AUC(0-inf): read-out: AUCINF—obs
Protocol: Pharmacokinetic studies were conducted to estimate plasma concentrations obtained after oral gavage (PO) and intravenous (IV) single administration of compounds administered to separate groups of male Beagle dogs. Three (3) dogs were administered a compound via the intravenous (IV) route at 3 mg/kg and 2.5 mL/kg, and plasma was collected at 12 timepoints over a 24-hour period. Following a 7 days washout period, the same dogs were administered the same compound via PO at 10 mg/kg and 5 mL/kg, and plasma was collected at 12 timepoints over a 48-hour period.
as §1, §2, §3

[3] = Pharmacokinetic study in rats (IV, PO); format: in vivo, Sprague-Dawley rats; conditions: Table B, Rat Plasma; for AUC(0-t) / half-life / AUC(0-inf) / Cmax: male, Sprague-Dawley; for AUC(0-inf): read-out: AUCINF—obs; for Cmax: read-out: Cmax (5 min)
Protocol: Pharmacokinetic studies were conducted to estimate plasma concentrations obtained after oral gavage (PO) and intravenous (IV) single administration of compounds administered to male Sprague-Dawley rats. Six (6) rats were administered for each compound, route and dose, and plasma was collected at 12 timepoints over a 24 hr period for IV, and 12 timepoints over a 48 hr period for PO. Note that plasma was collected from only 3 animals per timepoint (n=3 for timepoints up to 10 hours, and n=3 for timepoints from 16 h to end of study). Dosing volumes were 5 mL/kg for IV and 10 mL/kg for PO gavage. IV compounds for administration were in solutions, whereas PO compounds were in solution or suspension.
as §1, §2, §3

AUC—%Extrap—obs ([1]; Table A, IV, 3 mg/kg): 0.73%
Cl_obs ([1]; Table A, IV, 3 mg/kg): 21.2632 mL/min/kg
Vz_obs ([1]; Table A, IV, 3 mg/kg): 3.93714 L/kg
AUC—%Extrap—obs ([1]; Table A, PO, 10 mg/kg): 6.92%
Cl_obs ([1]; Table A, PO, 10 mg/kg): 32.236 mL/min/kg
F ([1]; Table A, PO, 10 mg/kg): 62%
Vz_obs ([1]; Table A, PO, 10 mg/kg): 9.80258 L/kg
AUC(0-t) ([1]; Table A, IV, 3 mg/kg): 2330 ng·h/mL
half-life ([1]; Table A, IV, 3 mg/kg): 2.14 h
AUC(0-inf) ([1]; Table A, IV, 3 mg/kg): 2350 ng·h/mL
Cmax ([1]; Table A, IV, 3 mg/kg): 3660 ng/mL
AUC(0-t) ([1]; Table A, PO, 10 mg/kg): 4810 ng·h/mL
half-life ([1]; Table A, PO, 10 mg/kg): 3.51 h
AUC(0-inf) ([1]; Table A, PO, 10 mg/kg): 5170 ng·h/mL
Cmax ([1]; Table A, PO, 10 mg/kg): 2380 ng/mL
AUC—%Extrap—obs ([2]; IV, 3 mg/kg): 2.17%
Cl_obs ([2]; IV, 3 mg/kg): 10.237 mL/min/kg
Vz_obs ([2]; IV, 3 mg/kg): 4.4105 L/kg
AUC—%Extrap—obs ([2]; PO, 10 mg/kg): 0.29%
Cl_obs ([2]; PO, 10 mg/kg): 10.148 mL/min/kg
F ([2]; PO, 10 mg/kg): 108%
Vz_obs ([2]; PO, 10 mg/kg): 5.13768 L/kg
AUC(0-t) ([2]; IV, 3 mg/kg): 4940 ng·h/mL
Cmax at 5 min ([2]; IV, 3 mg/kg): 2470 ng/mL
half-life ([2]; IV, 3 mg/kg): 5.2 h
AUC(0-inf) ([2]; IV, 3 mg/kg): 5070 ng·h/mL
AUC(0-t) ([2]; PO, 10 mg/kg): 17800 ng·h/mL
Cmax at 5 min ([2]; PO, 10 mg/kg): 2970 ng/mL
half-life ([2]; PO, 10 mg/kg): 6.03 h
AUC(0-inf) ([2]; PO, 10 mg/kg): 17800 ng·h/mL
AUC—%Extrap—obs ([3]; IV, 3 mg/kg): 0.48%
Cl_obs ([3]; IV, 3 mg/kg): 50.8342 mL/min/kg
Vz_obs ([3]; IV, 3 mg/kg): 4.33451 L/kg
AUC—%Extrap—obs ([3]; PO, 3 mg/kg): 16.96%
Cl_obs ([3]; PO, 3 mg/kg): 252.6873 mL/min/kg
F ([3]; PO, 3 mg/kg): 17%
Vz_obs ([3]; PO, 3 mg/kg): 85.17336 L/kg
AUC—%Extrap—obs ([3]; PO, 10 mg/kg): 19.45%
Cl_obs ([3]; PO, 10 mg/kg): 92.7505 mL/min/kg
F ([3]; PO, 10 mg/kg): 44%
Vz_obs ([3]; PO, 10 mg/kg): 34.17323 L/kg
AUC—%Extrap—obs ([3]; PO, 30 mg/kg): 28.47%
Cl_obs ([3]; PO, 30 mg/kg): 43.6063 mL/min/kg
F ([3]; PO, 30 mg/kg): 84%
Vz_obs ([3]; PO, 30 mg/kg): 19.76577 L/kg
AUC(0-t) ([3]; IV, 3 mg/kg): 979 ng·h/mL
half-life ([3]; IV, 3 mg/kg): 0.99 h
AUC(0-inf) ([3]; IV, 3 mg/kg): 984 ng·h/mL
Cmax ([3]; IV, 3 mg/kg): 1490 ng/mL
AUC(0-t) ([3]; PO, 3 mg/kg): 164 ng·h/mL
half-life ([3]; PO, 3 mg/kg): 3.89 h
AUC(0-inf) ([3]; PO, 3 mg/kg): 198 ng·h/mL
Cmax ([3]; PO, 3 mg/kg): 32.2 ng/mL
AUC(0-t) ([3]; PO, 10 mg/kg): 1450 ng·h/mL
half-life ([3]; PO, 10 mg/kg): 4.26 h
AUC(0-inf) ([3]; PO, 10 mg/kg): 1800 ng·h/mL
Cmax ([3]; PO, 10 mg/kg): 396 ng/mL
AUC(0-t) ([3]; PO, 30 mg/kg): 8200 ng·h/mL
half-life ([3]; PO, 30 mg/kg): 5.24 h
AUC(0-inf) ([3]; PO, 30 mg/kg): 11500 ng·h/mL
Cmax ([3]; PO, 30 mg/kg): 1570 ng/mL
Structure (SMILES): O=C(N[C@H]1CC[C@@H](Oc2nc(N3CCOCC3)cc3ncccc23)CC1)c1ncccn1 [Compound 123, N-((1s,4s)-4-((7-Morpholino-1,6-naphthyridin-5-yl)oxy)cyclohexyl)pyrimidine-2-carboxamide]

AUC—%Extrap—obs ([1]; Table D, IV, 3 mg/kg): 0.91%
Cl_obs ([1]; Table D, IV, 3 mg/kg): 34.092 mL/min/kg
Vz_obs ([1]; Table D, IV, 3 mg/kg): 3.32052 L/kg
AUC—%Extrap—obs ([1]; Table D, PO, 10 mg/kg): 0.39%
Cl_obs ([1]; Table D, PO, 10 mg/kg): 77.5327 mL/min/kg
F ([1]; Table D, PO, 10 mg/kg): 44%
Vz_obs ([1]; Table D, PO, 10 mg/kg): 18.51427 L/kg
AUC(0-t) ([1]; Table D, IV, 3 mg/kg): 1450 ng·h/mL
Cmax at 5 min ([1]; Table D, IV, 3 mg/kg): 2020 ng/mL
half-life ([1]; Table D, IV, 3 mg/kg): 1.13 h
AUC(0-inf) ([1]; Table D, IV, 3 mg/kg): 1470 ng·h/mL
AUC(0-t) ([1]; Table D, PO, 10 mg/kg): 2140 ng·h/mL
Cmax at 5 min ([1]; Table D, PO, 10 mg/kg): 1240 ng/mL
half-life ([1]; Table D, PO, 10 mg/kg): 2.76 h
AUC(0-inf) ([1]; Table D, PO, 10 mg/kg): 2150 ng·h/mL
Structure (SMILES): O=C(N[C@H]1CC[C@@H](Oc2nc(N3CCOCC3)cc3ncccc23)CC1)c1cc[nH]c1 [Compound 140, N-((1s,4s)-4-((7-morpholino-1,6-naphthyridin-5-yl)oxy)cyclohexyl)-1H-pyrrole-3-carboxamide]
